# Experiments:
# [1] = target: KRasG12D (Homo sapiens, UniProt P01116, G12D); assay: KRAS inhibitory activity test, TR-FRET (inhibition of binding of KRasG12D to GTP, SOS/GTP nucleotide exchange); assay type: biochemical; conditions: read-out: IC50 values of the compounds for inhibiting KRAS enzymes, G12D
# How it was run: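 KRasG12D preloaded with Bodipy-GDP plus Tb-streptavidin (3 nM Kras/0.5 nM Tb-SA/30 nM Bodipy-GDP) incubated 1 h at rt with compound (10-point 3-fold series). SOS/GTP mixture then added for 1 h at rt. TR-FRET signal read; IC50 calculated.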
# [2] = system: p-ERK in HCT116 (G13D) cells; assay: Cellular p-ERK inhibition assay (HTRF); assay type: cell-based; conditions: Homo sapiens, HCT-116, 1 hour with compound, read-out: IC50 (nM) of the compounds on the inhibition of p-ERK in tumor cells, HCT11 6
# Procedure: (§1) Cells were seeded in clear 96-well cell culture plates, with 80 µL of cell suspension per well, containing 8000 cells per well. The plates were incubated overnight at 37°C using a CO2 incubator. 2 µL of the compound was added to 78 µL of cell culture medium, mixed well, and then 20 µL of the compound solution was added to the corresponding wells of the cell culture plate. The plates were returned to the CO2 incubator for another hour. After incubation, the cell supernatant was discarded, and 50 µL of the […] was added to the cell culture plate. Add 1X cell lysis buffer to each well and incubate at room temperature with shaking for 30 minutes. Dilute Phospho-ERK1/2 Eu Cryptate antibody and Phospho-ERK1/2 d2 antibody 20-fold using detection buffer. Transfer 16 µL of cell lysis supernatant to each well in a new 384 white microplate, then add 2 µL of Phospho-ERK1/2 Eu Cryptate antibody diluent and 2 µL of Phospho-ERK1/2 d2 antibody diluent. Incubate at room temperature for at least 4 hours. After incubation, read the HTRF excitation (320 nm) and emission (615 nm, 665 nm) using a multilabel analyzer. Calculate the IC50 of the analyte. "++++" indicates IC50≤ 10 nM; "+++" indicates 10 nM < IC50≤ 100 nM; "++" indicates 100 nM < IC50≤ 2000 nM; "+" indicates 2000 nM < IC50. Table 2. IC50 (nM) of the compounds on the inhibition of p-ERK in tumor cells.
# [3] = system: p-ERK in A549 (G12S) cells; assay: Cellular p-ERK inhibition assay (HTRF); assay type: cell-based; conditions: 1 hour with compound
# Procedure: as §1
# [4] = system: p-ERK in NCI-H358 (G12C) cells; assay: Cellular p-ERK inhibition assay (HTRF); assay type: cell-based; conditions: Homo sapiens, 1 hour with compound, read-out: IC50 (nM) of the compounds on the inhibition of p-ERK in tumor cells, NCI-H35 8
# Procedure: as §1
# [5] = system: p-ERK in NCI-H460 (Q61H) cells; assay: Cellular p-ERK inhibition assay (HTRF); assay type: cell-based; conditions: Homo sapiens, 1 hour with compound, read-out: IC50 (nM) of the compounds on the inhibition of p-ERK in tumor cells, NCI-H46 0
# Procedure: as §1
# [6] = system: p-ERK in MKN1 (WTdep) cells; assay: Cellular p-ERK inhibition assay (HTRF); assay type: cell-based; conditions: Homo sapiens, MKN-1, 1 hour with compound, read-out: IC50 (nM) of the compounds on the inhibition of p-ERK in tumor cells, MKN 1
# Procedure: as §1
# [7] = system: p-ERK in NCI-H727 (G12V) cells; assay: Cellular p-ERK inhibition assay (HTRF); assay type: cell-based; conditions: Homo sapiens, 1 hour with compound, read-out: IC50 (nM) of the compounds on the inhibition of p-ERK in tumor cells, NCI-H72 7
# Procedure: as §1
# [8] = system: p-ERK in AsPC-1 (G12D) cells; assay: Cellular p-ERK inhibition assay (HTRF); assay type: cell-based; conditions: Homo sapiens, ASPC1, 1 hour with compound, read-out: IC50 (nM) of the compounds on the inhibition of p-ERK in tumor cells, AsPC-1
# Procedure: as §1
# [9] = system: p-ERK in PSN-1 (G12R) cells; assay: Cellular p-ERK inhibition assay (HTRF); assay type: cell-based; conditions: Homo sapiens, PSN1, 1 hour with compound, read-out: IC50 (nM) of the compounds on the inhibition of p-ERK in tumor cells, PSN-1
# Procedure: as §1
# Chain of KRasG12D (P01116 1-188 isoform P01116-2 G12D): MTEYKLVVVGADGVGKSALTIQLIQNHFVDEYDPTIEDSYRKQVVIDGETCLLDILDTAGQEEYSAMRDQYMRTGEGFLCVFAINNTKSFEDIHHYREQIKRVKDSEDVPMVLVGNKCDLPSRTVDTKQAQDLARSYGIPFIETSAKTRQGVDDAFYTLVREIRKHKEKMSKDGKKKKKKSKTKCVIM
Compound,IC50 [1] [nM],IC50 [2] [nM],"IC50 (nM) of the compounds on the inhibition of p-ERK in tumor cells, A54 9 [3]",IC50 [4] [nM],IC50 [5] [nM],IC50 [6] [nM],IC50 [7] [nM],IC50 [8] [nM],IC50 [9] [nM]
"Cc1cc(O)c(F)c(C2Cc3nc(OC[C@@]45CCCN4C[C@H](F)C5)nc(N4CCC[C@@](C)(O)C4)c3CS2(=O)=O)c1C(F)(F)F (stereo partly drawn) [Compound 6, 7-(2-fluoro-3-hydroxy-5-methyl-6-(trifluoromethyl)phenyl)-2-(((2R,7AS)-2-fluorotetrahydro-1H-pyrrolazin-7a(5H)-yl)methoxy)-4-((R)-3-hydroxy-3-methylpiperidin-1-yl)-7,8-dihydro-5H-thiopyrano[4,3-d]pyrimidine 6,6-dioxide]",≤ 10,≤ 10,+++ +,≤ 10,≤ 10,≤ 10,≤ 10,≤ 10,100 to 2000
Cc1cc(N)c(F)c(C2Cc3nc(OC[C@@]45CCCN4C[C@H](F)C5)nc(N4C[C@H]5CC[C@@H](C4)N5)c3CS2(=O)=O)c1C(F)(F)F (stereo partly drawn) [Compound 1],≤ 10,≤ 10,+++ +,≤ 10,≤ 10,≤ 10,≤ 10,≤ 10,100 to 2000
"Cc1cc(N)c(F)c(C2Cc3nc(OC[C@@]45CCCN4C[C@H](F)C5)nc(N4CCC[C@@](C)(O)C4)c3CS2(=O)=O)c1C(F)(F)F (stereo partly drawn) [Compound 5, 7-(3-amino-2-fluoro-5-methyl-6-(trifluoromethyl)phenyl)-2-(((2R,7AS)-2-fluorotetra hydro-1H-pyrrolazin-7a(5H)-yl)methoxy)-4-((R)-3-hydroxy-3-methylpiperidin-1-yl)-7,8-dihydro-5H-thiopyrano[4,3-d]pyrimidine 6,6-dioxide]",≤ 10,≤ 10,+++ +,≤ 10,≤ 10,≤ 10,≤ 10,≤ 10,100 to 2000
